Measured values: patent US10344060B2 (priority 2013, dated 2019)

Experiments:
hNav1.5 = hNav1.5 (Homo sapiens, UniProt Q14524); assay: cell-based; details: Table 12; ratio of PX tonic IC50 values
hNav1.4 = hNav1.4 (Homo sapiens, UniProt P35499); assay: cell-based; type: cell-based; details: Table 12; ratio of PX tonic IC50 values
Sequence of hNav1.4 (P35499 whole entry): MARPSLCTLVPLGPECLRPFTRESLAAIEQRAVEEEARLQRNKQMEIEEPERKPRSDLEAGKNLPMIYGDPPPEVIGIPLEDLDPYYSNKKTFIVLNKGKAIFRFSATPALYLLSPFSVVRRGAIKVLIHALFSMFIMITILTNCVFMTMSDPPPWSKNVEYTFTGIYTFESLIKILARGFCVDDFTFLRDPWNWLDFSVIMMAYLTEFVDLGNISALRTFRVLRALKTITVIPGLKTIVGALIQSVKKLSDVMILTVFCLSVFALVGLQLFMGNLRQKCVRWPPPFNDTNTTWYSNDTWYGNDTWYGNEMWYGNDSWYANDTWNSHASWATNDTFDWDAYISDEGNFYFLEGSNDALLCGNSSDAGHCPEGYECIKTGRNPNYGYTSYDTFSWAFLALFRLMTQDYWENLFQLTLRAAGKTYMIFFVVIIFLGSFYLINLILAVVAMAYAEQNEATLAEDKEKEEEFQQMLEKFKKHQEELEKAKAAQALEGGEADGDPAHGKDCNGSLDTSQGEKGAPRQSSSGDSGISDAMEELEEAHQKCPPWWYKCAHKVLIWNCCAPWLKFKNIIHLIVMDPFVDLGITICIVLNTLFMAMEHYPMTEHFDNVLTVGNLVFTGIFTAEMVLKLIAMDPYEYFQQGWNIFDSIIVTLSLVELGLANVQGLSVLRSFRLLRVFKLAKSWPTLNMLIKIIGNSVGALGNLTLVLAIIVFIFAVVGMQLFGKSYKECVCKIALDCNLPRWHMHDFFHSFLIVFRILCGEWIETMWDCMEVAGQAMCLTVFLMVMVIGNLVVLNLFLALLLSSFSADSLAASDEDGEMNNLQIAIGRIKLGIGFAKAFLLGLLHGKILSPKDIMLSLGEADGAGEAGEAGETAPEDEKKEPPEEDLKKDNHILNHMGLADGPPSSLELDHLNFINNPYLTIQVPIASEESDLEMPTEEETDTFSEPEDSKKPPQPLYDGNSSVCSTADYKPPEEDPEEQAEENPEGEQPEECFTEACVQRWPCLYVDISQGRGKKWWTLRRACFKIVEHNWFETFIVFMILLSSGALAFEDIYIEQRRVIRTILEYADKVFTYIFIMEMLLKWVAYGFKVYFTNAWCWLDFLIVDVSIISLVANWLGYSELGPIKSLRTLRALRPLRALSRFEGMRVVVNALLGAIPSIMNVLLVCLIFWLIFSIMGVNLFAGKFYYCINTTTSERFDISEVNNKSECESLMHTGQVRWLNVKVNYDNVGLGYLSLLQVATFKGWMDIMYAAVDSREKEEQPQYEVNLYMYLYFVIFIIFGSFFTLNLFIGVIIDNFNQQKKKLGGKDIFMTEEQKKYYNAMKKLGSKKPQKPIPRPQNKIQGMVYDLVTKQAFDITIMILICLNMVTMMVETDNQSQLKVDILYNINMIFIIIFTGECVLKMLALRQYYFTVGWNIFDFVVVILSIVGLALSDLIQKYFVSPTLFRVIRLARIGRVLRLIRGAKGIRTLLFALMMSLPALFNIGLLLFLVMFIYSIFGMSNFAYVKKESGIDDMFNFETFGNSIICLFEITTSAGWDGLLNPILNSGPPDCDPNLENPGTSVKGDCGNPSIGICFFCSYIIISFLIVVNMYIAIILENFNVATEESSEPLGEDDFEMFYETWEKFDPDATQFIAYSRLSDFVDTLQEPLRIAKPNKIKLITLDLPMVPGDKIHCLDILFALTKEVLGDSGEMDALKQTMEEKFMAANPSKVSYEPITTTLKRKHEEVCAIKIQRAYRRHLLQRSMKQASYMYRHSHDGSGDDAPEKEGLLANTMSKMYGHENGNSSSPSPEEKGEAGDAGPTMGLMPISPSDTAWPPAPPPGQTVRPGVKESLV

Sequence of hNav1.5 (Q14524 whole entry): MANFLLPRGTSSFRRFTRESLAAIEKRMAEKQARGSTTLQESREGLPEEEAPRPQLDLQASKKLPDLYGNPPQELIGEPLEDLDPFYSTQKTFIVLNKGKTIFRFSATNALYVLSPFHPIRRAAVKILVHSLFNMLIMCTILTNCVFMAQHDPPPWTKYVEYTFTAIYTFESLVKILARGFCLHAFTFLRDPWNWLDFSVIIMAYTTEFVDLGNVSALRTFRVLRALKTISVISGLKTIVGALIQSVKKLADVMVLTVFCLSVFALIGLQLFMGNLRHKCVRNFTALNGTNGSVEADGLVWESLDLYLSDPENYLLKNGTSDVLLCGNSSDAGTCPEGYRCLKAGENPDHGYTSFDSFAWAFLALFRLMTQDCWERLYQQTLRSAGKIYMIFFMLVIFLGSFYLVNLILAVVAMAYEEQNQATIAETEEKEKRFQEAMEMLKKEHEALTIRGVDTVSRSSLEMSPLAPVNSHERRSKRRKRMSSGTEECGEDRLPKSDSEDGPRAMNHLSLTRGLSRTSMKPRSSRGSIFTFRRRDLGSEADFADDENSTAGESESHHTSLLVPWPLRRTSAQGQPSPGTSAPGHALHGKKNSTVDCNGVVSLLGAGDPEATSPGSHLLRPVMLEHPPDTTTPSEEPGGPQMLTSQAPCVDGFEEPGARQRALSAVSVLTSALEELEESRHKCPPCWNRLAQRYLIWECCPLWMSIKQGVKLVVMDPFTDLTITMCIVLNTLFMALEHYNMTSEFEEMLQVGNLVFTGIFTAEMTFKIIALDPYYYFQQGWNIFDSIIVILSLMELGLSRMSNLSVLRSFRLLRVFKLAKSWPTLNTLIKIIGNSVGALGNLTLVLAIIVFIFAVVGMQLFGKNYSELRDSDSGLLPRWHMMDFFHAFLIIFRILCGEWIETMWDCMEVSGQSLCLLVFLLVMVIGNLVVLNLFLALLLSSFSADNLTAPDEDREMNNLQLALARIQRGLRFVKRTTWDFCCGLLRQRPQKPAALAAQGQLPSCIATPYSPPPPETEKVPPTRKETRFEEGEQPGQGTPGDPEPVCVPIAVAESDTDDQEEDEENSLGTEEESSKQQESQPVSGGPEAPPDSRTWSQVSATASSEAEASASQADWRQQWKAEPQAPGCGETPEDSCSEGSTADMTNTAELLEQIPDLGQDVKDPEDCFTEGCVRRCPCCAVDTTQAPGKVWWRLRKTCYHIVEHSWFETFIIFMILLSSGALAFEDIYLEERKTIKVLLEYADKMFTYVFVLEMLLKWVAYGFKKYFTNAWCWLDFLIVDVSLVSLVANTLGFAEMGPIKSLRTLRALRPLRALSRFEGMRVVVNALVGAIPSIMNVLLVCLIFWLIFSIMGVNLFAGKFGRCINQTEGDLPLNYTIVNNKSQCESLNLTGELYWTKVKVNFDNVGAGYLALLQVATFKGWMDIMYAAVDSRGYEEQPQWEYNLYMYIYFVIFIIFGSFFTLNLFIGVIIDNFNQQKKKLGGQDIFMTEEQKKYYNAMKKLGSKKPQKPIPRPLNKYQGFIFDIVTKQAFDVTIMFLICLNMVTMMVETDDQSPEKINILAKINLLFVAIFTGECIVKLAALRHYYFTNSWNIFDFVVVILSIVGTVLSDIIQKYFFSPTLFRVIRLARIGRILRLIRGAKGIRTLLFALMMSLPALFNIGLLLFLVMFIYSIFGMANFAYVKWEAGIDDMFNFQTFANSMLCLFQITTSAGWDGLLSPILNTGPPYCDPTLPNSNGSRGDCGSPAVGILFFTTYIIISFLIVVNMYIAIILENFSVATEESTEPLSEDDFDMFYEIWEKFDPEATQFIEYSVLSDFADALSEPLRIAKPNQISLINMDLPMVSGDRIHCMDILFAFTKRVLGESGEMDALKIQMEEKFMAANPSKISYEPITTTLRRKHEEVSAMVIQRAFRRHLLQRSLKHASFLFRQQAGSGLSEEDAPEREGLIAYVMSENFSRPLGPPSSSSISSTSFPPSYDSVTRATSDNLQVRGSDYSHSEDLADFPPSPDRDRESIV

| SMILES | Nav1.5/Nav1.7 (hNav1.5) | Nav1.4/Nav1.7 (hNav1.4) |
| --- | --- | --- |
| CCCC[C@@H]1NC(=O)[C@H](Cc2c[nH]c3ccccc23)NC(=O)[C@H](CCCCN)NC(=O)[C@H](CCC(N)=O)NC(=O)[C@@H](NC(=O)[C@@H](N)Cc2ccc(O)cc2)CSSC[C@@H]2NC(=O)[C@@H]3CSSC[C@@H](C(=O)N[C@@H](CCCNC(=N)N)C(=O)N[C@@H](CCCCN)C(=O)N[C@H](C(=O)N[C@@H](Cc4c[nH]c5ccccc45)C(N)=O)[C@@H](C)CC)NC(=O)[C@H](Cc4c[nH]c5ccccc45)NC(=O)[C@H](CC(C)C)NC(=O)[C@H](CCCCN)NC(=O)[C@H](CSSC[C@H](NC(=O)[C@H]([C@@H](C)O)NC(=O)[C@H](Cc4c[nH]c5ccccc45)NC1=O)C(=O)N[C@@H](CC(=O)O)C(=O)N[C@@H](CO)C(=O)N[C@@H](CCCCN)C(=O)N[C@@H](CCCNC(=N)N)C(=O)N[C@@H](C)C(=O)N3)NC(=O)[C@H](CCC(=O)O)NC(=O)[C@H](CC(C)C)NC(=O)CNC(=O)[C@H](CCCCN=[N+]=[N-])NC2=O [compound 307] | 83 | 40 |
| C#CC[C@H](N)C(=O)N[C@H]1CSSC[C@@H]2NC(=O)[C@@H]3CSSC[C@@H](C(=O)N[C@@H](CCCNC(=N)N)C(=O)N[C@@H](CCCCN)C(=O)N[C@H](C(=O)N[C@H](C(N)=O)[C@@H](C)CC)[C@@H](C)CC)NC(=O)[C@H](Cc4c[nH]c5ccccc45)NC(=O)[C@H](CC(C)C)NC(=O)[C@H](CCCCN)NC(=O)[C@H](CSSC[C@H](NC(=O)[C@H]([C@@H](C)O)NC(=O)[C@H](Cc4c[nH]c5ccccc45)NC(=O)[C@H](CCCC)NC(=O)[C@H](Cc4c[nH]c5ccccc45)NC(=O)[C@H](CCCCN)NC(=O)[C@H](CCC(N)=O)NC1=O)C(=O)N[C@@H](CC(=O)O)C(=O)N[C@@H](CO)C(=O)N[C@@H](CCCCN)C(=O)N[C@@H](CCCNC(=N)N)C(=O)N[C@@H](C)C(=O)N3)NC(=O)[C@H](CCC(=O)O)NC(=O)[C@H](CC(C)C)NC(=O)CNC(=O)[C@H](CCC(=O)O)NC2=O [compound 343] | 1011 | 300 |
| C#CC[C@@H]1NC(=O)[C@H](CC(=O)O)NC(=O)[C@@H]2CSSC[C@@H]3NC(=O)[C@H](CCC(=O)O)NC(=O)[C@H](CC(C)C)NC(=O)CNC(=O)[C@H](CCC(=O)O)NC(=O)[C@H](CSSC[C@H](NC(=O)[C@@H](N)Cc4ccc(O)cc4)C(=O)N[C@@H](CCC(N)=O)C(=O)N[C@@H](CCCCN)C(=O)N[C@@H](Cc4c[nH]c5ccccc45)C(=O)N[C@@H](CCCC)C(=O)N[C@@H](Cc4c[nH]c5ccccc45)C(=O)N[C@@H]([C@@H](C)O)C(=O)N2)NC(=O)[C@H](CSSC[C@@H](C(=O)N[C@@H](CCCNC(=N)N)C(=O)N[C@@H](CCCCN)C(=O)N[C@H](C(=O)N[C@H](C(N)=O)[C@@H](C)CC)[C@@H](C)CC)NC(=O)[C@H](Cc2c[nH]c4ccccc24)NC(=O)[C@H](CC(C)C)NC(=O)[C@H](CCCCN)NC3=O)NC(=O)[C@H](C)NC(=O)[C@H](CCCNC(=N)N)NC(=O)[C@H](CCCCN)NC1=O [compound 344] | 193 | 230 |
| CCCC[C@@H]1NC(=O)[C@H](Cc2c[nH]c3ccccc23)NC(=O)[C@H](CCCCN)NC(=O)[C@H](CCC(N)=O)NC(=O)[C@@H](NC(=O)[C@@H](N)Cc2ccc(O)cc2)CSSC[C@@H]2NC(=O)[C@@H]3CSSC[C@@H](C(=O)N[C@@H](CCCNC(=N)N)C(=O)N[C@@H](CCCCN)C(=O)N[C@H](C(=O)N[C@@H](Cc4c[nH]c5ccccc45)C(N)=O)[C@@H](C)CC)NC(=O)[C@H](Cc4c[nH]c5ccccc45)NC(=O)[C@H](CC(C)C)NC(=O)[C@H](CCCCN)NC(=O)[C@H](CSSC[C@H](NC(=O)[C@H]([C@@H](C)O)NC(=O)[C@H](Cc4c[nH]c5ccccc45)NC1=O)C(=O)N[C@@H](CC(=O)O)C(=O)N[C@@H](CO)C(=O)N[C@@H](CCCCN)C(=O)N[C@@H](CCCNC(=N)N)C(=O)N[C@@H](CCCCN=[N+]=[N-])C(=O)N3)NC(=O)[C@H](CCC(=O)O)NC(=O)[C@H](CC(C)C)NC(=O)CNC(=O)[C@H](CCC(=O)O)NC2=O [compound 306] | 1712 | 550 |
| C#CC[C@H](N)C(=O)N[C@H]1CSSC[C@@H]2NC(=O)[C@@H]3CSSC[C@@H](C(=O)N[C@@H](CCCNC(=N)N)C(=O)N[C@@H](CCCCN)C(=O)N[C@@H](CCC(=O)O)C(=O)N[C@H](C(N)=O)[C@@H](C)CC)NC(=O)[C@H](Cc4c[nH]c5ccccc45)NC(=O)[C@H](CC(C)C)NC(=O)[C@H](CCCCN)NC(=O)[C@H](CSSC[C@H](NC(=O)[C@H]([C@@H](C)O)NC(=O)[C@H](Cc4c[nH]c5ccccc45)NC(=O)[C@H](CCCC)NC(=O)[C@H](Cc4c[nH]c5ccccc45)NC(=O)[C@H](CCCCN)NC(=O)[C@H](CCC(N)=O)NC1=O)C(=O)N[C@@H](CC(=O)O)C(=O)N[C@@H](CO)C(=O)N[C@@H](CCCCN)C(=O)N[C@@H](CCCNC(=N)N)C(=O)N[C@@H](C)C(=O)N3)NC(=O)[C@H](CCCNC(=N)N)NC(=O)[C@H](CC(C)C)NC(=O)CNC(=O)[C@H](CCC(=O)O)NC2=O [compound 329] | 17167 | 555 |
| CCCC[C@@H]1NC(=O)[C@H](Cc2c[nH]c3ccccc23)NC(=O)[C@H](CCCCN)NC(=O)[C@H](CCC(N)=O)NC(=O)[C@@H](NC(=O)[C@@H](N)CCCCN=[N+]=[N-])CSSC[C@@H]2NC(=O)[C@@H]3CSSC[C@@H](C(=O)N[C@@H](CCCNC(=N)N)C(=O)N[C@@H](CCCCN)C(=O)N[C@H](C(=O)N[C@@H](Cc4c[nH]c5ccccc45)C(N)=O)[C@@H](C)CC)NC(=O)[C@H](Cc4c[nH]c5ccccc45)NC(=O)[C@H](CC(C)C)NC(=O)[C@H](CCCCN)NC(=O)[C@H](CSSC[C@H](NC(=O)[C@H]([C@@H](C)O)NC(=O)[C@H](Cc4c[nH]c5ccccc45)NC1=O)C(=O)N[C@@H](CC(=O)O)C(=O)N[C@@H](CO)C(=O)N[C@@H](CCCCN)C(=O)N[C@@H](CCCNC(=N)N)C(=O)N[C@@H](C)C(=O)N3)NC(=O)[C@H](CCC(=O)O)NC(=O)[C@H](CC(C)C)NC(=O)CNC(=O)[C@H](CCC(=O)O)NC2=O [compound 304] | 662 | 449 |
| C#CC[C@@H]1NC(=O)[C@@H]2CSSC[C@H](NC(=O)[C@@H](N)Cc3ccc(O)cc3)C(=O)N[C@@H](CCC(N)=O)C(=O)N[C@@H](CCCCN)C(=O)N[C@@H](Cc3c[nH]c4ccccc34)C(=O)N[C@@H](CCCC)C(=O)N[C@@H](Cc3c[nH]c4ccccc34)C(=O)N[C@@H]([C@@H](C)O)C(=O)N[C@H]3CSSC[C@H](NC(=O)[C@H](CCC(=O)O)NC(=O)[C@H](CC(C)C)NC(=O)CNC1=O)C(=O)N[C@@H](CCCCN)C(=O)N[C@@H](CC(C)C)C(=O)N[C@@H](Cc1c[nH]c4ccccc14)C(=O)N[C@H](C(=O)N[C@@H](CCCNC(=N)N)C(=O)N[C@@H](CCCCN)C(=O)N[C@@H](Cc1ccc(O)cc1)C(=O)N[C@H](C(N)=O)[C@@H](C)CC)CSSC[C@H](NC(=O)[C@H](C)NC(=O)[C@H](CCCNC(=N)N)NC(=O)[C@H](CCCCN)NC(=O)[C@H](CO)NC(=O)[C@H](CC(=O)O)NC3=O)C(=O)N2 [compound 317] | 927 | 161 |
